According to PubChem BioAssay AID2060512 (Molecular Pharmacology Branch, DTP, NCI, 2025):
“And” between values parts separate entries of the source, which are not always exact repeats. Equal entries are not always repeated.

Tested on: 186277-243-T-J2-PDC complex spheroid viability
Test: Anticancer human tumor 186277-243-T-J2-PDC patient-derived colon adenocarcinoma cell line growth inhibition [GQUAD]
Settings: for viability, T/C: stronger effect = lower value
Text: DNA G-quadruplex Stabilizer Agents in Combinations in Complex Spheroids
A high-throughput screen of multi-cell type tumor spheroids was designed to identify active combinations of DNA G-quadruplex stabilizer agents and targeted small molecules. Complex spheroids include a stromal component modeled by human endothelial cells (HUVEC) and fibroblasts modeled by human mesenchymal stem cells (MSCs). The concentration ranges selected for each drug and investigational agent were based upon clinically achievable concentrations if the clinical Cmax of the agent was known.
Compounds. The drugs and investigational agents: pidnarulex (CX-5461; NSC782164), APTO-253 (NSC789042), BRACO-19 (NSC847499), peposertib (NSC802822), ceralasertib (NSC780249), elimusertib (NSC800525), camonsertib (NSC841442), AZD-1390 (NSC803789), olaparib (NSC753686), talazoparib (NSC767125), ART-558 (NSC835418), sotorasib (NSC818433), MRTX-1133 (NSC836407), SN-38 (NSC673596), topotecan (NSC609699), etoposide (NSC141540), doxorubicin (NSC123127), gemcitabine (NSC613327), 5-fluorouracil (NSC19893), paclitaxel (NSC125973), vemurafenib (NSC761431), panobinostat (NSC761190), R-306465 (JNJ-16241199; NSC773264), adavosertib (NSC754352), TP-3654 (NSC805149), carboplatin (NSC241240), KSQ-4279 (NSC840948), and staurosporine (NSC755774) were obtained from the National Cancer Institute (NCI) Developmental Therapeutics Program Chemical Repository (34). The FDA-approved anticancer drug set is available from the NCI Developmental Therapeutics Program. […] The stock solutions were prepared in dimethyl sulfoxide (DMSO, Sigma-Aldrich, St. Louis, MO, cat. D2650) at 800-fold the tested concentration and stored at -70 degrees C prior to their use. All drugs and investigational agents were tested over a range starting from a high concentration at or near the clinical Cmax and decreasing in half-log increments. If the clinical Cmax for an agent had not been determined, the highest concentration tested was 10 microM.
2.3 Cell Culture. All cells were maintained in an incubator at 37 degrees C and 5% CO2 with 95% humidity. The PDC lines were cultured according to standard operating procedures established by the NCI PDMR. All PDCs were thawed and cultured in Matrigel-coated flasks prepared with a working solution of 1X Ham's F-12 nutrient mix, without supplementation (Invitrogen, cat. 11765054), 100 U/mL penicillin-streptomycin (Invitrogen, cat. 15140122), and 2.5% Matrigel (Corning Inc., cat. 354248) for the first three passages. The 857933-349-R-J2-PDC line was cultured in 6C/Colon 1B media, which includes advanced DMEM/F-12 (Thermo Fisher Scientific, cat. 12634028), 10 mM HEPES (Thermo Fisher Scientific, cat. 15630080), 1X GlutaMAX supplement (Thermo Fisher Scientific, cat. 35050061), 0.1 mg/mL primocin (InvivoGen, cat. ant-pm-2), 10% defined fetal bovine serum, heat inactivated (HyClone Laboratories Inc., cat. SH30070.03HI), 50% L-WRN conditioned media (ATCC, cat. CRL-3276), 1.25 mM N-Acetyl-L-cysteine (Sigma-Aldrich, cat. A9165), 10 mM nicotinamide (Sigma-Aldrich, cat. N0636), 1X B-27 supplement (Thermo Fisher Scientific, cat. 17504044), 1X N-2 supplement (Thermo Fisher Scientific, cat. 17502048), 10 microM Y-27632 dihydrochloride (Tocris Bioscience, cat. 1254), and 50 ng/mL human EGF recombinant protein (Thermo Fisher Scientific, cat. PHG0311). The 485176-168-R4-J1-PDC line was cultured in Panc media, which includes all 6C/Colon 1B media components plus 100 ng/mL human FGF-10 (Thermo Fisher Scientific, cat. 100-26), 500 nM SB-431542 (Selleckchem, cat. S1067), and gastrin (Tocris, cat. 3006).
[…]
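Note: spheroids exposed to drugs for 7 days.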
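Throughout, for viability, T/C: 100% = DMSO vehicle control viability.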

## Cc1cnc(CNC(=O)c2c(=O)c3ccc(N4CCCN(C)CC4)nc3n3c2sc2ccccc23)cn1
Compound 0.0316 µM
  viability, T/C: 97.7% [middle of 12 runs]
Compound 0.316 µM
  viability, T/C: 76.8% [middle of 12 runs]
Compound 1 µM
  viability, T/C: 61.5% [middle of 12 runs]
Compound 3.16 µM
  viability, T/C: 43.7% [middle of 12 runs]
Compound 10 µM
  viability, T/C: 39.7% [middle of 12 runs]
Compound alone, run of 04/16/2024
  IC50: 2.36 µM [middle of 12 runs]

## Cc1cccc(N(C)C(=O)C2C(O)CCN2c2nc(C)cc(C(F)(F)F)c2C#N)c1 (configuration not stated)
Compound 0.0316 µM
  viability, T/C: 109% and 93.9% and 95.1%
Compound 0.1 µM
  viability, T/C: 91% and 94.3% and 102%
Compound 0.316 µM
  viability, T/C: 95.7% and 97.1% and 115%
Compound 1 µM
  viability, T/C: 102% and 99.7% and 99.6%
Compound 3.16 µM
  viability, T/C: 116% and 97.7% and 102%
Compound 10 µM
  viability, T/C: 102% and 104% and 91.5%
Curve of compound
  IC50: > 10 µM

## CC[C@@]1(O)C(=O)OCc2c1cc1n(c2=O)Cc2cc3c(CN(C)C)c(O)ccc3nc2-1
Compound 0.000999 µM
  viability, T/C: 105% and 97.5% and 100%
Compound 0.00316 µM
  viability, T/C: 97.5% and 99.2% and 96.2%
Compound 0.00999 µM
  viability, T/C: 97.4% and 111% and 103%
Compound 0.0316 µM
  viability, T/C: 87.6% and 77.7% and 96.6%
Compound 0.0999 µM
  viability, T/C: 72.4% and 55.3% and 59.9%
Compound 0.316 µM
  viability, T/C: 50.6% and 42.9% and 46.2%
Curve of compound
  IC50: > 0.316 µM and 0.104 µM and 0.23 µM

## COc1cc(C2c3cc4c(cc3C(OC3OC5COC(C)OC5C(O)C3O)C3COC(=O)C23)OCO4)cc(OC)c1O (configuration not stated) + Cc1[nH]c2ccc(F)cc2c1-c1nc2c3cccnc3c3ncccc3c2[nH]1
Curve of first compound, second compound 0.0316 µM
  IC50: 3.72 µM
Curve of first compound, second compound 0.1 µM
  IC50: 2.42 µM
Curve of first compound, second compound 0.316 µM
  IC50: 3.48 µM
Curve of first compound, second compound 1 µM
  IC50: 3.34 µM
Curve of first compound, second compound 3.16 µM
  IC50: 2.58 µM
Curve of first compound, second compound 10 µM
  IC50: 2.76 µM
Second compound 0.0316 µM, first compound 0.0316 µM
  viability, T/C: 104%
Second compound 0.0316 µM, first compound 0.1 µM
  viability, T/C: 101%
Second compound 0.0316 µM, first compound 0.316 µM
  viability, T/C: 101%
Second compound 0.0316 µM, first compound 1 µM
  viability, T/C: 62.2%
Second compound 0.0316 µM, first compound 3.16 µM
  viability, T/C: 61.3%
Second compound 0.0316 µM, first compound 10 µM
  viability, T/C: 25%
Second compound 0.1 µM, first compound 0.0316 µM
  viability, T/C: 92.1%
Second compound 0.1 µM, first compound 0.1 µM
  viability, T/C: 92.4%
Second compound 0.1 µM, first compound 0.316 µM
  viability, T/C: 76.8%
Second compound 0.1 µM, first compound 1 µM
  viability, T/C: 62%
Second compound 0.1 µM, first compound 3.16 µM
  viability, T/C: 47.9%
Second compound 0.1 µM, first compound 10 µM
  viability, T/C: 27.2%
Second compound 0.316 µM, first compound 0.0316 µM
  viability, T/C: 94.6%
Second compound 0.316 µM, first compound 0.1 µM
  viability, T/C: 90.2%
Second compound 0.316 µM, first compound 0.316 µM
  viability, T/C: 83.4%
Second compound 0.316 µM, first compound 1 µM
  viability, T/C: 69.3%
Second compound 0.316 µM, first compound 3.16 µM
  viability, T/C: 52.9%
Second compound 0.316 µM, first compound 10 µM
  viability, T/C: 26.2%
Second compound 1 µM, first compound 0.0316 µM
  viability, T/C: 104%
Second compound 1 µM, first compound 0.1 µM
  viability, T/C: 87.1%
Second compound 1 µM, first compound 0.316 µM
  viability, T/C: 85.6%
Second compound 1 µM, first compound 1 µM
  viability, T/C: 66.9%
Second compound 1 µM, first compound 3.16 µM
  viability, T/C: 53.5%
Second compound 1 µM, first compound 10 µM
  viability, T/C: 27.4%
Second compound 3.16 µM, first compound 0.0316 µM
  viability, T/C: 96.6%
Second compound 3.16 µM, first compound 0.1 µM
  viability, T/C: 101%
Second compound 3.16 µM, first compound 0.316 µM
  viability, T/C: 110%
Second compound 3.16 µM, first compound 1 µM
  viability, T/C: 69%
Second compound 3.16 µM, first compound 3.16 µM
  viability, T/C: 49.8%
Second compound 3.16 µM, first compound 10 µM
  viability, T/C: 25.5%
Second compound 10 µM, first compound 0.0316 µM
  viability, T/C: 103%
Second compound 10 µM, first compound 0.1 µM
  viability, T/C: 98%
Second compound 10 µM, first compound 0.316 µM
  viability, T/C: 94.1%
Second compound 10 µM, first compound 1 µM
  viability, T/C: 70.6%
Second compound 10 µM, first compound 3.16 µM
  viability, T/C: 48.1%
Second compound 10 µM, first compound 10 µM
  viability, T/C: 30.5%
